Data published in patent US9868737B2, “Pyridino[1,2-A]pyrimidone analogue used as MTOR/P13K inhibitor” (CISEN PHARMACEUTICAL CO., LTD., priority 2014, dated 2018).
Read-outs that look alike come from different tables or passages of the source.

Tested on: MCF-7 cells
Assay: In vitro test of cell activity (MCF-7 cells, insulin stimulation, ELISA-One fluorescence)
Format: cell-based
Conditions: for inhibition at 1 µM / IC50 / inhibition at 0.5 µM: Homo sapiens, MCF7, MCF-7 cells; for inhibition at 0.5 µM: conc. 0.5 μM
Description: Example In Vitro Tests of Cell Activities Experimental Steps and Methods:
1) MCF-7 cells were inoculated at the density of 2.5×10^4 cells/well into 96-well plates (the culture medium used should be a complete culture medium containing 10% FBS).
2) On the next day, the medium in each well was drawn out. A certain concentration (preliminary screening) or a series of concentration (IC50 test) of compounds were dissolved in a culture medium without serum and added to the 96-well plates to culture cells for 2 hours.
3) Insulin was dissolved in a culture medium without serum, added to the cultured cells and incubated for 30 minutes, wherein the final concentration of insulin was […].
4) A lysis solution was prepared according to the following method during the waiting period for the reaction:
a) Enhancer solution was removed from the refrigerator to melt in advance.
b) Enhancer solution was diluted 10 times with the 5× Lysis Buffer to give a concentrated lysis solution.
c) The concentrated lysis solution was diluted 5 times with double distilled water to give the lysis solution.
5) The medium in each well was completely removed and each well was quickly rinsed with PBS once.
6) 150 μl of the freshly prepared lysis solution was added to each well and shaked at room temperature for 10 minutes.
7) After confirming that all cells were detached, the lysis solution together with the cell fragments was transferred into a 1.5 ml tube.
8) The tube was shaked on vortes mixer to make the lysis solution and cells mix completely and then the mixture was centrifugated at 4° C. under 12000 g for 10 minutes.
9) The number of strips of ELISA-one micro-well plate that is required was calculated. The needless strips were removed from the frame, put back into the storage bag and sealed. Before the strips of micro-well plate were used, 200 μl of double distilled water was used to rinse each well to remove preservative.
10) 50 μl of antibody mixture was added to each well. (The antibody mixture solution was prepared by mixing the medium antibody reagent and the enzyme labeled antibody reagent with an equal proportion. The preparation of antibody mixture didn't need vortex.)
11) 25 μl of cell lysates was added to each well of ELISA-One micro-well plate. The micro-well plate was covered with adhesive sealing film and incubated on a micro-well plate oscillation instrument at room temperature for 1 hour.
12) Each well was rinsed with 150 μl of 1× rinsing buffer 3 times. After the last rinsing, the rinsing buffer in the well was completely removed. If necessary, the 1× rinsing buffer could be allowed to stay in the micro-well plate for up to 30 minutes so that the substrate mixed solution could be prepared during such time period.
13) The substrate mixed solution should be prepared just before each use, 10 μl of the substrate mixed solution was added to each well and the micro-well plate was sealed with tin-foil and incubated on the micro-well plate oscillation instrument at room temperature for 10 minutes.
14) 10 μl of stop solution was added to each well and mixed slightly (5-10 seconds) on the micro-well plate oscillation instrument.
15) The corresponding ELISA-One filter group was assembled and used to read the fluorescence signal intensity.

[1] = conc. 1 μM, read-out: % inhibition AKT
[2] = conc. 1 μM, read-out: % inhibition p70s6k

| SMILES | inhibition at 1 µM [1] [%] | inhibition at 1 µM [2] [%] | IC50 (read-out: IC50 p-AKT) [nM] | IC50 (read-out: IC50 p-p70S6K) [nM] | % inhibition AKT (MCF-7 cells, conc. 1 μM) [%] | % inhibition p70s6k (MCF-7 cells, conc. 1 μM) [%] | inhibition at 0.5 µM (read-out: % inhibition AKT) [%] | inhibition at 0.5 µM (read-out: % inhibition p70s6k) [%] |
| --- | --- | --- | --- | --- | --- | --- | --- | --- |
| COc1ncc(-c2ccc3nccc(=O)n3c2)cc1NS(=O)(=O)c1ccccc1F [compound 2] | 94.2 | 50.8 | 100 to 250 | > 250 |  |  |  |  |
| COc1ncc(-c2ccc3nccc(=O)n3c2)cc1NS(=O)(=O)c1cccc(F)c1 [compound 3] | 95.9 | 52.4 | 50 to 100 | 50 to 100 |  |  |  |  |
| COc1ncc(-c2ccc3nccc(=O)n3c2)cc1NS(=O)(=O)c1cc(F)ccc1F [compound 4] | 95.6 | 50.8 | ≤ 50 | 100 to 250 |  |  |  |  |
| COc1ncc(-c2ccc3nccc(=O)n3c2)cc1CS(=O)(=O)c1ccc(F)cc1F [compound 5] | 26 | 12.3 |  |  |  |  |  |  |
| Cc1ncc(-c2ccc3nccc(=O)n3c2)cc1NS(=O)(=O)c1ccc(F)cc1F [compound 7] | 81.3 | 50.1 |  |  |  |  |  |  |
| Cc1ncc(-c2ccc3nccc(=O)n3c2)cc1NS(=O)(=O)c1ccc(F)cc1 [compound 8] | 84.6 | 60.5 |  |  |  |  |  |  |
| COc1ncc(-c2ccc3nccc(=O)n3c2)cc1NS(=O)(=O)C1CC1 [compound 9] | 76 | 38.4 |  |  |  |  |  |  |
| Cc1ncc(-c2ccc3nccc(=O)n3c2)cc1NS(=O)(=O)c1ccccc1F [compound 10] | 81.9 | 27.8 |  |  |  |  |  |  |
| COc1ncc(-c2ccc3nccc(=O)n3c2)cc1NS(=O)(=O)c1ccc(F)cc1 [compound 11] | 94.7 | 52.3 | 50 to 100 | 100 to 250 |  |  |  |  |
| COc1ncc(-c2ccc3nccc(=O)n3c2)cc1NS(=O)(=O)c1ccccc1 [compound 12] | 95.4 | 91.5 | 50 to 100 | 100 to 250 |  |  |  |  |
| COc1ncc(-c2ccc3nccc(=O)n3c2)cc1NS(=O)(=O)CC(F)(F)F [compound 13] | 78.3 | 53 |  |  |  |  |  |  |
| Cc1ncc(-c2ccc3nccc(=O)n3c2)cc1NS(=O)(=O)c1ccc(F)cc1F [compound 14] |  |  |  |  | 81.4 | 47.3 |  |  |
| CCOc1ncc(-c2ccc3nccc(=O)n3c2)cc1NS(=O)(=O)c1ccc(F)cc1F [compound 15] | 93.3 | 91.7 |  |  |  |  |  |  |
| O=c1ccnc2ccc(-c3cnc(Cl)c(NS(=O)(=O)c4ccc(F)cc4F)c3)cn12 [compound 16] | 91.6 | 75.1 | ≤ 50 | > 250 |  |  |  |  |
| CCc1ncc(-c2ccc3nccc(=O)n3c2)cc1NS(=O)(=O)c1ccccc1F [compound 17] | 81.1 | 34.1 |  |  |  |  |  |  |
| CCc1ncc(-c2ccc3nccc(=O)n3c2)cc1NS(=O)(=O)c1ccc(F)cc1F [compound 18] | 85.7 | 46.2 |  |  |  |  |  |  |
| O=c1ccnc2ccc(-c3cnc(Cl)c(NS(=O)(=O)c4ccccc4F)c3)cn12 [compound 19] | 91.2 | 74.1 | ≤ 50 | > 250 |  |  |  |  |
| COc1ncc(-c2ccc3nccc(=O)n3c2)cc1NS(=O)(=O)c1ccccc1C [compound 20] | 93.8 | 89.9 | ≤ 50 | 100 to 250 |  |  |  |  |

| SMILES | inhibition at 1 µM [1] [%] | inhibition at 1 µM [2] [%] | IC50 (read-out: IC50 p-AKT) [nM] | IC50 (read-out: IC50 p-p70S6K) [nM] | % inhibition AKT (MCF-7 cells, conc. 1 μM) [%] | % inhibition p70s6k (MCF-7 cells, conc. 1 μM) [%] | inhibition at 0.5 µM (read-out: % inhibition AKT) [%] | inhibition at 0.5 µM (read-out: % inhibition p70s6k) [%] |
| --- | --- | --- | --- | --- | --- | --- | --- | --- |
| COc1ncc(-c2ccc3nccc(=O)n3c2)cc1NS(=O)(=O)c1ccc(C#N)cc1 [compound 21] | 94.1 | 91.2 | 50 to 100 | 100 to 250 |  |  |  |  |
| COc1ncc(-c2ccc3nccc(=O)n3c2)cc1NS(=O)(=O)c1ccc(C(F)(F)F)cc1 [compound 22] | 94.5 | 94 | ≤ 50 | 100 to 250 |  |  |  |  |
| COc1ncc(-c2ccc3nccc(=O)n3c2)cc1NS(=O)(=O)c1ccc(Cl)cc1 [compound 23] | 95.7 | 93.9 | ≤ 50 | 100 to 250 |  |  |  |  |
| COc1ccc(S(=O)(=O)Nc2cc(-c3ccc4nccc(=O)n4c3)cnc2OC)cc1 [compound 24] | 94.6 | 93.2 | 50 to 100 | 100 to 250 |  |  |  |  |
| COc1ncc(-c2ccc3nccc(=O)n3c2)cc1NS(=O)(=O)c1ccc(Cl)cc1F [compound 27] | 94.8 | 93.5 |  |  |  |  |  |  |
| CCOc1ncc(-c2ccc3nccc(=O)n3c2)cc1NS(=O)(=O)c1ccccc1F [compound 29] | 59.6 | 26.5 |  |  |  |  |  |  |
| O=c1ccnc2ccc(-c3cnc(Cl)c(NS(=O)(=O)N4CCOCC4)c3)cn12 [compound 31] | 67.8 | 45.5 |  |  |  |  |  |  |
| COc1ncc(-c2ccc3nccc(=O)n3c2)cc1NS(=O)(=O)c1ccc(C)nc1 [compound 32] |  |  | 100 to 250 | 100 to 250 |  |  | 75.1 | 84.2 |
| COc1ncc(-c2ccc3nccc(=O)n3c2)nc1NS(=O)(=O)c1ccc(F)cc1F [compound 33] |  |  |  |  |  |  | -40.9 | 0.8 |
| COc1ncc(-c2ccc3nccc(=O)n3c2)cc1NS(=O)(=O)c1sccc1Cl [compound 34] |  |  | ≤ 50 | 50 to 100 |  |  | 97 | 95.6 |
| COc1ncc(-c2ccc3nccc(=O)n3c2)cc1NS(=O)(=O)c1ccc(C)s1 [compound 35] |  |  | ≤ 50 | ≤ 50 |  |  | 93.3 | 86 |
| COc1ncc(-c2ccc3nccc(=O)n3c2)cc1NS(=O)(=O)c1sccc1C [compound 37] |  |  | ≤ 50 | 100 to 250 |  |  | 95.8 | 90.3 |
| COc1ncc(-c2ccc3nccc(=O)n3c2)cc1NS(=O)(=O)c1cnc2ccccc2c1 [compound 38] |  |  | ≤ 50 | > 250 |  |  | 91.5 | 79.4 |
| COc1ncc(-c2cn3c(=O)ccnc3cn2)cc1NS(=O)(=O)c1ccc(F)cc1F [compound 39, 2,4-difluoro-N-(2-methoxy-5-(4-oxo-4H-pyrazino[1,2-a]pyrimidin-7-yl)pyridin-3-yl)benzsulfamide] |  |  |  |  |  |  | -28.6 | 7.1 |
| COc1ncc(-c2cn3c(=O)ccnc3cn2)cc1NS(=O)(=O)c1cc(F)cc(F)c1 [compound 40] |  |  |  |  |  |  | 18.1 | 13.7 |
| COc1ncc(-c2cn3c(=O)ccnc3cn2)cc1NS(=O)(=O)c1cc(F)ccc1F [compound 41] |  |  |  |  |  |  | -10.1 | 0.1 |
| COc1ncc(-c2cn3c(=O)ccnc3cn2)cc1NS(=O)(=O)c1cccc(F)c1 [compound 42] |  |  |  |  |  |  | 9.1 | 5.1 |
